According to US8324406B2, “Antitumoral dihydropyran-2-one compounds” (priority 2006, dated 2012):

What was measured:
Experiment in all cases: cells
Assay type in all cases: cell-based
HT29 = settings: Homo sapiens, HT-29, HT29, 48 hours exposure, SRB; for CC50: 50% net cell killing (cytotoxic effect), read-out: LC50 (the source's name); for GI50: concentration that produces 50% growth inhibition, read-out: GI50; for IC (TGI): total growth inhibition (cytostatic effect), read-out: TGI
Excerpt: (§1) The aim of this assay is to evaluate the in vitro cytostatic (ability to delay or arrest tumor cell growth) or cytotoxic (ability to kill tumor cells) activity of the samples being tested.
(§2) Evaluation of Cytotoxic Activity Using the SBR Colorimetric Assay
(§3) A colorimetric type of assay, using sulforhodamine B (SRB) reaction has been adapted for a quantitative measurement of cell growth and viability (following the technique described by Skehan P et al. J. Natl. Cancer Inst. 1990, 82, 1107-1112).
(§4) This form of assay employs SBS-standard 96-well cell culture microplates (Faircloth et al. Methods in cell science, 1988, 11(4), 201-205; Mosmann et al, Journal of. Immunological. Methods, 1983, 65(1-2), 55-63). All the cell lines used in this study, derived from different types of human cancer, were obtained from the American Type Culture Collection (ATCC).
(§5) Cells were maintained in Dulbecco's Modified Eagle Medium (DMEM) supplemented with 10% Fetal Bovine Serum (FBS), 2 mM L-glutamine, 100 U/mL penicillin and 100 U/mL streptomycin at 37° C., 5% CO2 and 98% humidity. For the experiments, cells were harvested from subconfluent cultures using trypsinization and resuspended in fresh medium before counting and plating.
(§6) Cells were seeded in 96 well microtiter plates at 5×10^3 cells per well in aliquots of 150 μL, and allowed to attach to the plate surface for 18 hours in drug free medium. One control (untreated) plate of each cell line was fixed (as described below) and used for time zero reference value. Afterwards, test samples were added to the cultures in ten serial dilutions, in aliquots of 50 μL, ranging from 10 to 0.00262 μg/mL. After 48 hours exposure, the antitumor effect was estimated by the SRB method: Briefly, cells were washed twice with PBS, fixed for 15 min in 1% glutaraldehyde solution, rinsed twice in PBS, and stained in 0.4% SRB solution for 30 min at room temperature. Cells were then rinsed several times with 1% acetic acid solution and air-dried. SRB was then extracted in 10 mM trizma base solution and the absorbance measured in an automated spectrophotometric plate reader at 490 nm. Cell survival was expressed as percentage of control cell growth. The final effect of the sample being tested was estimated by applying the NCI algorithm (Boyd M R and Paull K D. Drug Dev. Res. 1995, 34, 91-104).
(§7) Using the mean±SD of triplicate cultures, a dose-response curve was automatically generated using nonlinear regression analysis. Three reference parameters were calculated (NCI algorithm) by automatic interpolation: GI50=concentration that produces 50% growth inhibition; TGI=total growth inhibition (cytostatic effect) and LC50=concentration that produces 50% net cell killing (cytotoxic effect).

MDA-MB-231 = settings: Homo sapiens, MDA-MB-231, 48 hours exposure, SRB; for CC50: 50% net cell killing (cytotoxic effect), read-out: LC50 (the source's name); for GI50: concentration that produces 50% growth inhibition, read-out: GI50; for IC (TGI): total growth inhibition (cytostatic effect), read-out: TGI
Excerpt: as §1, §2, §3, §4, §5, §6, §7

A549 = settings: Homo sapiens, A549, 48 hours exposure, SRB; for CC50: 50% net cell killing (cytotoxic effect), read-out: LC50 (the source's name); for GI50: concentration that produces 50% growth inhibition, read-out: GI50; for IC (TGI): total growth inhibition (cytostatic effect), read-out: TGI
Excerpt: as §1, §2, §3, §4, §5, §6, §7

Row | Structure (SMILES) | CC50 (HT29) | GI50 (HT29) | IC (TGI) (HT29) | CC50 (MDA-MB-231) | GI50 (MDA-MB-231) | IC (TGI) (MDA-MB-231) | CC50 (A549) | GI50 (A549) | IC (TGI) (A549)
1 | COC1=CC[C@@H]([C@@H](C)/C=C(C)/C=C\C=C/C(=O)N[C@H](C(=O)N/C=C\C[C@H](C/C=C(\C)Cl)O[Si](C)(C)C(C)(C)C)C(C)(C)C)OC1=O [Compound 29a] | 4430 nM | 605 nM | 1420 nM | 6200 nM | 1180 nM | 2800 nM | 8560 nM | 886 nM | 3400 nM
2 | COC1=CC[C@@H]([C@@H](C)/C=C(C)/C=C\C=C/C(=O)N[C@@H](Cc2ccccc2)C(=O)N/C=C\C[C@H](C/C=C(\C)Cl)O[Si](C)(C)C(C)(C)C)OC1=O [Compound 29d] | 928 nM | 829 nM | 872 nM | 1830 nM | 1100 nM | 1390 nM | 1380 nM | 464 nM | 801 nM
3 | COC1=CC[C@@H]([C@@H](C)/C=C(C)/C=C\C=C\C(=O)N[C@H](C(=O)N/C=C\C[C@H](C/C=C(\C)Cl)O[Si](C)(C)C(C)(C)C)C(C)(C)C)OC1=O [Compound 29e] | 2360 nM | 2070 nM | 2210 nM | 2070 nM | 1140 nM | 1480 nM | 2660 nM | 1150 nM | 1770 nM
4 | COC1=CC[C@@H]([C@@H](C)/C=C(C)/C=C\C=C/C(=O)N[C@H](C(=O)N/C=C\C[C@@H](O)C/C=C(\C)Cl)C(C)(C)C)OC1=O [Compound 30a] | 10.1 nM | 1.35 nM | 2.13 nM | 85.2 nM | 1.95 nM | 9.41 nM | > 1780 nM | 2.31 nM | 137 nM
5 | C/C=C\C[C@H](O)C/C=C\NC(=O)[C@@H](NC(=O)\C=C/C=C\C(C)=C\[C@H](C)[C@@H]1CC=C(OC)C(=O)O1)C(C)(C)C [Compound 30b] | 4730 nM | 9.84 nM | 92.7 nM | 5110 nM | 20.8 nM | 511 nM | > 18900 nM | 22.7 nM | 322 nM
6 | COC1=CC[C@@H]([C@@H](C)/C=C(C)/C=C\C=C/C(=O)N[C@H](C(=O)N/C=C\C[C@@H](O)C/C=C(\C)Cl)C(C)C)OC1=O [Compound 30c] | > 182 nM | 0.474 nM | 0.838 nM | 52.8 nM | 0.983 nM | 5.83 nM | > 182 nM | 0.71 nM | 3.1 nM
7 | COC1=CC[C@@H]([C@@H](C)/C=C(C)/C=C\C=C/C(=O)N[C@@H](Cc2ccccc2)C(=O)N/C=C\C[C@@H](O)C/C=C(\C)Cl)OC1=O [Compound 30d] | > 16.7 nM | 0.132 nM | 0.251 nM | > 16.7 nM | 0.31 nM | 0.703 nM | > 16.7 nM | 0.318 nM | 1.06 nM
8 | COC1=CC[C@@H]([C@@H](C)/C=C(C)/C=C\C=C\C(=O)N[C@H](C(=O)N/C=C\C[C@@H](O)C/C=C(\C)Cl)C(C)(C)C)OC1=O [Compound 30e] | 44.4 nM | 13.5 nM | 21.3 nM | 266 nM | 23.1 nM | 65.7 nM | 3550 nM | 35.5 nM | 302 nM
9 | C/C(Cl)=C\C[C@H](O)C/C=C\NC(=O)[C@@H](NC(=O)\C=C/C=C\C(C)=C\[C@H](C)[C@@H]1CC=CC(=O)O1)C(C)(C)C [Compound 30f] | 1050 nM | 488 nM | 713 nM | 1610 nM | 694 nM | 1070 nM | 919 nM | 488 nM | 657 nM
